The results in this text go back to PMC6911004, “Fragment-based screening identifies molecules targeting the substrate-binding ankyrin repeat domains of tankyrase” (Scientific Reports, 2019).

Structures are written as SMILES.

Assay [1] deals with T1, TNKS2 ARC5 (Homo sapiens, UniProt Q9H2K2).
T1 construct: followed by TNKS2 ARC5 (1 μL, 100 μM stock); His6-GST; made in house; host or cells: E. coli
Kind of assay: Differential scanning fluorimetry (DSF, thermal shift). In kind it is binding. The note with it: fragment 500 μM. The procedure: Therefore, we chose TNKS2 ARC5 for screening by DSF, anticipating the largest signal window for measuring changes in Tm upon fragment binding.
We screened 1869 compounds in duplicate at a concentration of 500 μM, which we considered a reasonable compromise between having a sufficiently high concentration to identify weak binders while minimising the likelihood of false positives through fragment precipitation/aggregation and non-specific binding. The final DMSO concentration was 5%. We calculated melting temperatures using both the inflection point and the maximum peak of first derivative data methods. Both methods generally agreed, unless the melt curve was biphasic or misshapen, with slightly lower variability for the […] Tm determination method (see Materials and Methods for experimental and analysis details).
We determined the melting temperature for the unbound ARC (Tm, 0) from the mean of 12 reference melting curves per plate, with 5% DMSO only. We calculated the change in melting temperature (ΔTm) by subtracting the mean Tm, 0 from Tm, compound. We tested compounds in duplicate, defining fragments as hits if they conferred a ΔTm outside two standard deviations (2σ) from the mean, in one or both replicates. To check for consistency between plates, we ran triplicate peptide controls; however, we excluded peptide ΔTm values from the calculation of the mean ΔTm to avoid skewing the results. We observed mean ΔTm values (IP/1st derivative methods) of −0.127/−0.331 °C and σ as 0.997/1.19 °C. A hit cut-off of 2σ gave absolute shifts of +1.87/+2.05 °C for compounds that stabilised and −2.13/−2.71 °C for compounds that destabilised the ARC (Fig. 2B).
For the screen, a C1000 thermal cycler (Bio-Rad) was used to record melt curves. SYPRO Orange was purchased as a 5000 × stock in DMSO from Sigma Aldrich. The ICR fragment library was available as 100 mM stocks in DMSO, and dispensed (25 nL) using an ECHO acoustic liquid handling system into white 384-well PCR plates (Framestar, 4titude). Wells were backfilled with DMSO (225 nL). Buffer (2.75 μL, 25 mM HEPES-NaOH pH 7.5, 100 mM NaCl, 2 mM TCEP) was added, followed by TNKS2 ARC5 (1 μL, 100 μM stock) and then SYPRO orange dye (1 μL, 25×). The plate was centrifuged after the addition of each reagent (1 min, 1000 × g). Final assay concentrations were as follows: TNKS2 ARC5 (20 μM); fragment (500 μM); SYPRO Orange dye (5×); DMSO (5% v/v) in a total volume of 5 μL. Peptide control wells (3BP2 TBM 16-mer, 200 μM, sequence LPHLQRSPPDGQSFRSW with C-terminal tryptophan added for photometric concentration measurements, the N-terminus acetylated and the C-terminus amide-capped) were plated in triplicate, and there were 12 blank wells per plate, with DMSO only (250 nL, 5% v/v). Melt curves were recorded from 20–95 °C, with the temperature ramped by 0.5 °C every 15 s. Data were analysed using Vortex (Dotmatics) software and melting temperatures calculated from both the inflection point and the maximum peak of 1st-derivative data. Data points were excluded if the melt curve was poor, i.e., if there was no fluorescence signal above baseline, high fluorescence intensity throughout, or if the melt curve was shallow (<1000 rfu difference between baseline and peak maximum). The unbound melting temperature was determined from the mean of 12 reference melting curves, with 5% DMSO only. The change in melting temperature (ΔTm) was calculated by subtracting the mean Tm, 0 from Tm, compound. Compounds were tested in duplicate, and fragments were defined as hits if they gave a ΔTm outwith 2 σ from the mean in one or both replicates.
For the experiment shown in Fig. 2A, ARC and 3BP2 TBM peptide concentrations were 20 and 200 μM, respectively, in 50 mM HEPES-NaOH pH 7.5, 100 mM NaCl, 2 mM TCEP and a total volume of 25 μL. SYPRO Orange was added at 5×. Data were recorded from 4–95 °C, with the temperature ramped by 0.5 °C every 15 s, using a CFX384 thermal cycler (Bio-Rad). […]
(In general: In DSF a fluorescence change marks the thermal transition of the protein.)

In assay [2] the target is T2, TNKS2 ARC4 (Homo sapiens, UniProt Q9H2K2).
T2 construct: The cell was filled with TNKS2 ARC4 (488–649); His6-GST; made in house; host or cells: E. coli
T2 sequence (Q9H2K2 488-649): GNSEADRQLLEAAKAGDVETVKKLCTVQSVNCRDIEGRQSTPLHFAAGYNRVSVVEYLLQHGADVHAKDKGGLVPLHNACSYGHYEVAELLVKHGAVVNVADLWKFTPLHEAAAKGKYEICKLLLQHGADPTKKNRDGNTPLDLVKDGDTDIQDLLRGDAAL
Kind of assay: Primary fragment screen by T2 relaxation-edited ligand-observed NMR (cocktails of four). In kind it is binding. The note with it: fragments 1 mM each, 35 μM protein. The source says:
The hit rate for compounds confirmed to bind TNKS2 ARC5 as evaluated by NMR was relatively low, at 0.78%, and only 0.16% for fragments binding TNKS2 ARC4 and 5 competitively with a TBM peptide. Different screening assays often identify distinct hit fragments. There is no consensus on the most appropriate assays to use for fragment screening, especially against challenging targets such as protein-protein interactions. Often several orthogonal methods are used in series to narrow down fragment hits, or a combination of biophysical and biochemical assays to exclude false positives and identify binders that modulate protein activity. We therefore carried out an additional primary screen using T2 relaxation-edited ligand-observed NMR on TNKS2 ARC4, probing a subset of molecules from the ICR fragment library that was compatible with NMR. […]
Data were processed using Bruker Topsin 3.14, then analysed using the MNova Screen software. […] The relative peak intensity change (I) was calculated by Eq. 1 for all peaks in the 5.5–9.5 ppm region, for each compound.1 I=(Iblank−Iprotein)/Iblank
The average percentage change was then calculated, and compounds designated a hit if the signal was reduced by ≥26% (2 σ). […] Protein ^1H spectra of TNKS2 ARC4 (200 μM) were measured at 24 h intervals to ensure protein stability and folding for the duration of the screening experiments.

T1 sequence (Q9H2K2 641-800): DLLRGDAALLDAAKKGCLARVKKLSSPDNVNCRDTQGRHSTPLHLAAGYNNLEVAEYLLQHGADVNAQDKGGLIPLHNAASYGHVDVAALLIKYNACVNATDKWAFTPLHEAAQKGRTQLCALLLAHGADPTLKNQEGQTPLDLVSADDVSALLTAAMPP

As for `CCOc1cccc(-c2cc(N)[nH]n2)c1` [compound 6], the “hit in DSF primary screen” value in assay [1] is “hits”. In addition, in assay [2], the “hit in NMR primary screen” value is “hits”.

Turning to `Nc1nc(Nc2ccccc2)nc2ccccc12` [compound 7], the “hit in DSF primary screen” value in assay [1] is given as “hits”. Also, in assay [2], the “hit in NMR primary screen” value is reported as “hits”.
